Results published in patent publication US7705016B2, “Regulation of food intake by modulation of long-chain fatty acyl-CoA levels in the hypothalamus” (Albert Einstein College of Medicine of Yeshiva University, priority 2003, dated 2010).

Experiments:
rats = rats fed standard chow, prolonged (16 h) fasting; cited from earlier work
PEPCK mRNA = assay: Hepatic PEPCK mRNA after ICV OA (northern blot); format: in vivo, rat; conditions: either group (HF55, HF140)
Method: Northern Blot Analysis. Total RNA was isolated from hypothalami and liver with Trizol (Invitrogen Corp., California, USA). NPY, Glc-6-Pase or PEPCK expression was measured by northern blot analysis. Hypothalamic RNA was analyzed using probes for prepro-NPY and β-actin. To assess the effect of ICV OA on the expression of hepatic enzymes, total RNA was isolated from freeze-clamped liver tissues from rats subjected to insulin clamp studies. Glc-6-Pase and PEPCK cDNA were obtained as previously described (Combs et al., 2001; Massillon et al., 1996; 1998). Probes were labeled with [α-^32P] dCTP using a random primer kit (Stratagene). Quantification was performed by scanning densitometry, normalizing for β-actin signal and 18S ribosomal RNA to correct for loading variabilities. Effect of ICV OA on the hepatic expression of Glc-6-Pase and PEPCK. The potent effects of the central administration of OA on hepatic glucose fluxes prompted us to examine whether changes in the liver mRNA levels of key metabolic enzymes can partly account for these effects. Thus, we next measured the liver abundance of Glc-6-Pase and PEPCK mRNA as a function of 18S ribosomal RNA (FIG. 9d) or β-actin mRNA (not shown) in tissue samples obtained after ICV infusion of either OA or vehicle in caloric restricted and over-fed rats. […]

CPT1L mRNA = CPT1L mRNA in hypothalamic nuclei micro punches by real-time PCR after ICV injection; format: in vivo, rat; conditions: 3 days after ICV injection; adjusted for β-actin
Method: Surgical implantation of ICV cannulae was performed on day 1 (˜3 weeks prior to the in vivo study). Full recovery of body weight and food intake was achieved by day 7. Rats randomized for ribozyme treatment received an ICV injection of CPT1L-Ribo, CPT inhibitors or controls on day 17. The experimental group treated with TDGA received ICV injection of the inhibitor on day 21, 6 hr prior to the harvesting of brains. Panels B. and C. show quantitation of CPT1L (B) and CPT1M (C) mRNA by real-time PCR. RNA was purified from individual hypothalamic nuclei (PVN, LHA, and arcuate), which were obtained by micro punch technique 3 days after ICV injection of pTarget control (▪; N=4) or CPT1LRibo (□; N=5). […] CPT1 activity was measured in the particulate fraction of protein extracts from animals treated with ICV control injections (▪; N=6, receiving aCSF+2% DMSO or Control Ribo), TDGA ( ?; N=6), or CPTL-Ribo (□; N=5). […] Levels of stearoyl-CoA (F) and oleyl-CoA (E) respectively were measured by HPLC in arcuate of rats injected ICV with control compound (▪; ST1340) or ST1326 (□).
ICV catheters were implanted in male Sprague-Dawley rats by stereotaxic surgery (Obici et al., 2002a; Obici et al., 2001; Liu et al., 1998). […] Thus, we next measured CPT1 activity in ARC and in whole hypothalamus. […]
Quantitation of CPT1 and neuropeptides mRNA by Northern and real-time PCR. […]

Row | Compound | decrease in hypothalamic NPY mRNA compared with ICV vehicle (rats) [%] | liver expression of PEPCK (PEPCK mRNA) | CPT1L mRNA in the arcuate nuclei (ARC) (CPT1L mRNA)
1 | CCCCCCCC/C=C\CCCCCCCC(=O)O [OA, oleic acid] | ~50 | failed to significantly alter | –
2 | CPT1L-Ribo: plasmid (pTarget, CMV promoter) expressing a hammerhead ribozyme that specifically cleaves rat CPT1L mRNA, complexed to PEI for ICV injection (DNA CUGUACCAAAGAGCUGUAGAGUCCGUGAGGACGAAACGCCGCUCACAAUG) | – | – | marked decrease
